pIC50: −log10 of the molar value.
Each molecule was assayed against T1, human GPR35 (Homo sapiens, UniProt Q9HC97) (assay: Luciferase Reporter Assay (YAP responsive element) in HEK293 cells stably transfected with human GPR35). Settings: overnight incubation.
T1 construct: expressed in transfected cells; host or cells: HEK293
Assay type: cell-based
Procedure: HEK293 cells stably transfected with human GPR35 were maintained in Dulbecco's Modified Eagle Medium (DMEM) supplemented with 10% FBS and 300 μg/mL Zeocin and 200 μg/mL Hygromycin at 37° C., 10% CO2. On Day 1, cells were plated in poly-D-lysine coated 96-well tissue culture plate in regular growth medium (DMEM/10% FBS/300 μg/mL Zeocin/200 μg/mL Hygromycin. On the next day, luciferase reporter plasmid DNA with YAP responsive element was transfected into cells using lipofectamine 2000 (Invitrogen) following manufacture's protocol. After transfection for 6 hr., cells were treated with testing compounds in fasting DMEM medium (phenol red free, FBS free) at varying compound concentrations ranging from 10 μM to […] in a 3-fold serial diluted fashion. After an overnight incubation, the luciferase activities were measured with SteadyLite Plus Kit (PerkinElmer) according to manufacturer's protocol. IC50 was determined by fitting the dose-response data to a four-parameter logistic curve using GraphPad Prism.
The symbol “+” indicates IC50 is greater than […]. “++” indicates IC50>100 nM but ≤[…]. “+++” indicates IC50≤100 nM.

T1 sequence (Q9HC97 whole entry): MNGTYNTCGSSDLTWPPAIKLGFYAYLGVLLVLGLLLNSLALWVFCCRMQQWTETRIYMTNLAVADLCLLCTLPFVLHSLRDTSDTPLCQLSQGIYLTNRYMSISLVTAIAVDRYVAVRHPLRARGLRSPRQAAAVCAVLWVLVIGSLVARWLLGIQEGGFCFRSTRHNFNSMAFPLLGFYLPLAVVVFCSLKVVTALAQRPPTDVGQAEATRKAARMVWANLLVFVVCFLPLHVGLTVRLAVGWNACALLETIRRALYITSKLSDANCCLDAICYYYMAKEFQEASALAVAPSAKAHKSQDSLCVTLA

pIC50	SMILES
6.00 to 7.00	N#Cc1ccc(COc2ccc(NC(=O)c3coc4cc(-c5nnn[nH]5)c(F)cc34)cc2)c(Cl)c1 [Compound 1-46, N-(4-((2-chloro-4-cyanobenzyl)oxy)phenyl)-5-fluoro-6-(1H-tetrazol-5-yl)benzofuran-3-carboxamide]
6.00 to 7.00	O=C(Nc1ccc(OCc2cc(F)cc(Cl)c2)cc1)c1coc2cc(-c3nnn[nH]3)c(F)cc12 [Compound 1-45, N-(4-((3-chloro-5-fluorobenzyl)oxy)phenyl)-5-fluoro-6-(1H-tetrazol-5-yl)benzofuran-3-carboxamide]
≥ 7.00	O=C(Nc1ccc(OCc2ccc(Cl)c(F)c2)cc1)c1coc2cc(-c3nnn[nH]3)c(F)cc12 [Compound 1-49, N-(4-((4-chloro-3-fluorobenzyl)oxy)phenyl)-5-fluoro-6-(1H-tetrazol-5-yl)benzofuran-3-carboxamide]
6.00 to 7.00	O=C(Nc1ccc(OC2COC2)c(F)c1)c1coc2cc(-c3nnn[nH]3)c(F)cc12 [Compound 1-28, 5-fluoro-N-(3-fluoro-4-(oxetan-3-yloxy)phenyl)-6-(1H-tetrazol-5-yl)benzofuran-3-carboxamide]
≥ 7.00	O=C(Nc1ccc(OC2CCCC2)c(F)c1)c1coc2cc(-c3nnn[nH]3)ccc12 [Compound 1-1, N-(4-(cyclopentyloxy)-3-fluorophenyl)-6-(1H-tetrazol-5-yl)benzofuran-3-carboxamide]
≥ 7.00	O=C(Nc1ccc(C2CCCC2)c(F)c1)c1coc2cc(-c3nnn[nH]3)c(F)cc12 [Compound 1-17, N-(4-cyclopentyl-3-fluorophenyl)-5-fluoro-6-(1H-tetrazol-5-yl)benzofuran-3-carboxamide]
≥ 7.00	O=C(Nc1ccc(OCc2ccc(F)cc2Cl)cc1)c1coc2cc(-c3nnn[nH]3)ccc12 [Compound 1-13, N-(4-((2-chloro-4-fluorobenzyl)oxy)phenyl)-6-(1H-tetrazol-5-yl)benzofuran-3-carboxamide]
≥ 7.00	O=C(Nc1ccc(OCc2ccc(F)cc2Cl)cc1)c1coc2cc(-c3noc(=O)[nH]3)c(F)cc12 [Compound 1-24, N-(4-((2-chloro-4-fluorobenzyl)oxy)phenyl)-5-fluoro-6-(5-oxo-4,5-dihydro-1,2,4-oxadiazol-3-yl)benzofuran-3-carboxamide]
< 6.00	O=C(Nc1ccc(OCc2ccc(F)cc2Cl)cc1)c1coc2cc(OCc3nnn[nH]3)ccc12 [Compound 1-8, 6-((1H-tetrazol-5-yl)methoxy)-N-(4-((2-chloro-4-fluorobenzyl)oxy)phenyl)benzofuran-3-carboxamide]
6.00 to 7.00	O=C(Nc1ccc(OCc2cc(F)c(F)cc2Cl)cc1)c1coc2cc(-c3nnn[nH]3)c(F)cc12 [Compound 1-50, N-(4-((2-chloro-4,5-difluorobenzyl)oxy)phenyl)-5-fluoro-6-(1H-tetrazol-5-yl)benzofuran-3-carboxamide]
6.00 to 7.00	O=C(Nc1ccc(Oc2ccc(F)cc2Cl)cc1)c1coc2cc(-c3nnn[nH]3)c(F)cc12 [Compound 1-40, N-(4-(2-chloro-4-fluorophenoxy)phenyl)-5-fluoro-6-(1H-tetrazol-5-yl)benzofuran-3-carboxamide]
≥ 7.00	O=C(Nc1ccc(O[C@@H]2CCC(F)(F)C2)c(F)c1)c1coc2cc(-c3nnn[nH]3)c(F)cc12 (single isomer, unassigned) [Compound 1-37]
6.00 to 7.00	O=C(Nc1ccc(N2CCC[C@@H]2C(F)(F)F)c(F)c1)c1coc2cc(-c3nnn[nH]3)c(F)cc12 [Compound 1-33, (R)-5-fluoro-N-(3-fluoro-4-(2-(trifluoromethyl)pyrrolidin-1-yl)phenyl)-6-(1H-tetrazol-5-yl)benzofuran-3-carboxamide]
6.00 to 7.00	O=C(Nc1ccc(OCc2ccc(Cl)cc2Cl)cc1)c1coc2cc(-c3nnn[nH]3)c(F)cc12 [Compound 1-19, N-(4-((2,4-dichlorobenzyl)oxy)phenyl)-5-fluoro-6-(1H-tetrazol-5-yl)benzofuran-3-carboxamide]
≥ 7.00	O=C(Nc1ccc(OCc2cc(Cl)cs2)cc1)c1coc2cc(-c3nnn[nH]3)c(F)cc12 [Compound 1-56, N-(4-((4-chlorothiophen-2-yl)methoxy)phenyl)-5-fluoro-6-(1H-tetrazol-5-yl)benzofuran-3-carboxamide]
≥ 7.00	O=C(Nc1ccc(OCc2cc(F)c(Cl)c(F)c2)cc1)c1coc2cc(-c3nnn[nH]3)c(F)cc12 [Compound 1-53, N-(4-((4-chloro-3,5-difluorobenzyl)oxy)phenyl)-5-fluoro-6-(1H-tetrazol-5-yl)benzofuran-3-carboxamide]
≥ 7.00	O=C(Nc1ccc(OCc2ccc(Cl)cn2)cc1)c1coc2cc(-c3nnn[nH]3)c(F)cc12 [Compound 1-51, N-(4-((5-chloropyridin-2-yl)methoxy)phenyl)-5-fluoro-6-(1H-tetrazol-5-yl)benzofuran-3-carboxamide]
≥ 7.00	CC1(Oc2ccc(NC(=O)c3coc4cc(-c5nnn[nH]5)c(F)cc34)cc2F)CC1 [Compound 1-16, 5-fluoro-N-(3-fluoro-4-(1-methylcyclopropoxy)phenyl)-6-(1H-tetrazol-5-yl)benzofuran-3-carboxamide]
< 6.00	O=C(Nc1ccc(OC2CCCC2)c(F)c1)c1coc2c(-c3nnn[nH]3)cccc12 [Compound 1-7, N-(4-(cyclopentyloxy)-3-fluorophenyl)-7-(1H-tetrazol-5-yl)benzofuran-3-carboxamide]
< 6.00	O=C(Nc1ccc(OC2CCCC2)c(F)c1F)c1coc2cc(-c3nnn[nH]3)ccc12 [Compound 1-9, N-(4-(cyclopentyloxy)-2,3-difluorophenyl)-6-(1H-tetrazol-5-yl)benzofuran-3-carboxamide]
6.00 to 7.00	O=C(Nc1ccc(N2CCC[C@H]2C(F)(F)F)c(F)c1)c1coc2cc(-c3nnn[nH]3)c(F)cc12 [Compound 1-32, (S)-5-fluoro-N-(3-fluoro-4-(2-(trifluoromethyl)pyrrolidin-1-yl)phenyl)-6-(1H-tetrazol-5-yl)benzofuran-3-carboxamide]

SMILES	pIC50
O=C(Nc1ccc(OC2CCC2)c(F)c1)c1coc2cc(-c3nnn[nH]3)ccc12 [Compound 1-2, N-(4-cyclobutoxy-3-fluorophenyl)-6-(1H-tetrazol-5-yl)benzofuran-3-carboxamide]	≥ 7.00

— patent US20250214976A1, “GPR35 MODULATORS AND USES THEREOF” (Crossignal Therapeutics, Inc., priority 2022, published 2025)
